Assay results as given in BindingDB's records for doi:10.1016/s0196-9781(98)00133-8 (Synaptic Pharmaceutical, 1998).
Non-standard residues stand in square brackets, D forms with d. Residues, ends and D or L forms follow the SMILES beside them.

Columns and labels:
Galanin receptor type 2 = target: T1, Galanin receptor type 2 (Homo sapiens, UniProt O43603)
T1 sequence (O43603 whole entry): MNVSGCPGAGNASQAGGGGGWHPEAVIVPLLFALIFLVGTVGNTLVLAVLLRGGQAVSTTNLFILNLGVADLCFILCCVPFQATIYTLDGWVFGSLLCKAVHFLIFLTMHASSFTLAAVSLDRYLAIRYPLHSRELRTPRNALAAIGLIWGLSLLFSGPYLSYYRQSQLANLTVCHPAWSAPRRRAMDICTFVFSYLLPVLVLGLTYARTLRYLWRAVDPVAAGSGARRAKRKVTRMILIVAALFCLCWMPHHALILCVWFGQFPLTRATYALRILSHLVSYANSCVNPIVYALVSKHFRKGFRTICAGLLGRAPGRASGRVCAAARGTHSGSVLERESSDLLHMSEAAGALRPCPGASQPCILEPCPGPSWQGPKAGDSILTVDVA

Galanin receptor type 3 = target: T2, Galanin receptor type 3 (Homo sapiens, UniProt O60755)
T2 sequence (O60755 whole entry): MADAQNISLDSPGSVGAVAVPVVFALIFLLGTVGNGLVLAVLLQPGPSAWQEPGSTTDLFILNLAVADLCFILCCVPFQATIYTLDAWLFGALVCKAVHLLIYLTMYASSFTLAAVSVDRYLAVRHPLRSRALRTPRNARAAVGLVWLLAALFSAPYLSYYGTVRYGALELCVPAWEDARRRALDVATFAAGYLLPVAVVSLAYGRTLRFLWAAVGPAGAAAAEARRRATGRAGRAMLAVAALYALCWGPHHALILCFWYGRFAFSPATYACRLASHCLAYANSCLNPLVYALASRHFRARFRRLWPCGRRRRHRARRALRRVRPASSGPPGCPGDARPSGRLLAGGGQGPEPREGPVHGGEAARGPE

CC(C)C[C@H](NC(=O)[C@H](CC(C)C)NC(=O)[C@H](Cc1ccc(O)cc1)NC(=O)CNC(=O)[C@H](C)NC(=O)[C@H](CO)NC(=O)[C@H](CC(N)=O)NC(=O)[C@H](CC(C)C)NC(=O)[C@@H](NC(=O)[C@H](Cc1c[nH]c2ccccc12)NC(=O)CN)[C@@H](C)O)C(=O)NCC(=O)N1CCC[C@H]1C(=O)N1CCC[C@H]1C(=O)N1CCC[C@H]1C(=O)NCC(=O)N[C@@H](Cc1ccccc1)C(=O)N[C@@H](CO)C(=O)N1CCC[C@H]1C(=O)N[C@@H](Cc1ccccc1)C(=O)N[C@@H](CCCN=C(N)N)C(N)=O
Ki (Galanin receptor type 2): 1.95 nM

COc1ccccc1N(CCOc1ccc(C)cc1)C(=O)CN1CCCCC1 [CAS_3043476]
Ki (Galanin receptor type 2): 1.07 nM

CC(C)C[C@H](NC(=O)[C@H](CC(C)C)NC(=O)[C@@H](Cc1c[nH]c2ccccc12)NC(=O)[C@H](Cc1ccccc1)NC(=O)[C@@H](Cc1c[nH]c2ccccc12)NC(=O)[C@H](CCC(N)=O)NC(=O)[C@H](CCC(N)=O)NC(=O)[C@@H]1CCCN1C(=O)[C@H](CCCCN)NC(=O)[C@@H]1CCCN1C(=O)[C@@H](CCCN=C(N)N)NC(=O)[C@@H]1CCCN1C(=O)CNC(=O)[C@H](CC(C)C)NC(=O)[C@H](CC(C)C)NC(=O)[C@H](Cc1ccc(O)cc1)NC(=O)CNC(=O)[C@H](C)NC(=O)[C@H](CO)NC(=O)[C@H](CC(N)=O)NC(=O)[C@H](CC(C)C)NC(=O)[C@@H](NC(=O)[C@H](Cc1c[nH]c2ccccc12)NC(=O)CN)[C@@H](C)O)C(N)=O [Gal(1-13)-Std I] (H-GWTLNSAGYLLGP[dR]PKPQQ[dW]F[dW]LL-NH2)
Ki (Galanin receptor type 2): 0.63 nM

CC[C@H](C)[C@H](NC(=O)[C@H](C)NC(=O)[C@H](Cc1c[nH]cn1)NC(=O)[C@@H]1CCCN1C(=O)CNC(=O)[C@H](CC(C)C)NC(=O)[C@H](CC(C)C)NC(=O)[C@H](Cc1ccc(O)cc1)NC(=O)CNC(=O)[C@H](C)NC(=O)[C@H](CO)NC(=O)[C@H](CC(N)=O)NC(=O)[C@H](CC(C)C)NC(=O)[C@@H](N)[C@@H](C)O)C(=O)N[C@@H](CC(=O)O)C(=O)N[C@@H](CC(N)=O)C(=O)N[C@@H](Cc1c[nH]cn1)C(=O)N[C@@H](CCCNC(=N)N)C(=O)N[C@@H](CO)C(=O)N[C@@H](Cc1ccccc1)C(=O)N[C@@H](Cc1c[nH]cn1)C(=O)N[C@@H](CC(=O)O)C(=O)N[C@@H](CCCCN)C(=O)N[C@@H](Cc1ccc(O)cc1)C(=O)NCC(=O)N[C@@H](CC(C)C)C(=O)N[C@@H](C)C(N)=O [Galanin (3-29), porcine]
Ki (Galanin receptor type 2): 1000 nM

CC[C@H](C)[C@H](NC(=O)[C@H](C)NC(=O)[C@H](Cc1c[nH]cn1)NC(=O)[C@@H]1CCCN1C(=O)CNC(=O)[C@H](CC(C)C)NC(=O)[C@H](CC(C)C)NC(=O)[C@H](Cc1ccc(O)cc1)NC(=O)CNC(=O)[C@H](C)NC(=O)[C@H](CO)NC(=O)[C@H](CC(N)=O)NC(=O)[C@H](CC(C)C)NC(=O)[C@@H](NC(=O)[C@@H](N)Cc1c[nH]c2ccccc12)[C@@H](C)O)C(=O)N[C@@H](CC(=O)O)C(=O)N[C@@H](CC(N)=O)C(=O)N[C@@H](Cc1c[nH]cn1)C(=O)N[C@@H](CCCNC(=N)N)C(=O)N[C@@H](CO)C(=O)N[C@@H](Cc1ccccc1)C(=O)N[C@@H](CO)C(=O)N[C@@H](CC(=O)O)C(=O)N[C@@H](CCCCN)C(=O)N[C@@H](Cc1c[nH]cn1)C(=O)NCC(=O)N[C@@H](CC(C)C)C(=O)N[C@H](C(N)=O)[C@@H](C)O [Galanin Porcine 2-29]
Ki (Galanin receptor type 3): 60.3 nM
Ki (Galanin receptor type 2): 2.88 nM

CC[C@H](C)[C@H](NC(=O)[C@H](C)NC(=O)[C@H](Cc1cnc[nH]1)NC(=O)[C@@H]1CCCN1C(=O)CNC(=O)[C@H](CC(C)C)NC(=O)[C@H](CC(C)C)NC(=O)[C@H](Cc1ccc(O)cc1)NC(=O)CNC(=O)[C@H](C)NC(=O)[C@H](CO)NC(=O)[C@H](CC(N)=O)NC(=O)[C@H](CC(C)C)NC(=O)[C@@H](NC(=O)[C@H](Cc1c[nH]c2ccccc12)NC(=O)CN)[C@@H](C)O)C(=O)N[C@@H](CC(=O)O)C(=O)N[C@@H](CC(N)=O)C(=O)N[C@@H](Cc1cnc[nH]1)C(N)=O [Galanin rat]
Ki (Galanin receptor type 2): 1.62 nM

H-GWTLNSAGYLLGPPPALALA-NH2 [M40]
Ki (Galanin receptor type 2): 4.07 nM
